Experimental data as given in US7666639B2, “Plant deoxyribonucleoside kinase enzymes and their use” (priority 2002, dated 2010).

System: N-terminally deleted tomato dNK enzyme (TOM-ΔNdCK/dGK)
Test: Deoxyribonucleoside kinase activity in extract of KY895 transformed with pGEX-2T-TOM-ΔNdCK/dGK
Format: biochemical, Lycopersicum esculentum
Conditions: pGEX-2T-TOM-ΔNdCK/dGK
Description: The E. coli strain KY895 (F^−, tdk-1, ilv) [Knecht W, Munch-Petersen B and Piskur J: Identification of residues involved in the specificity and regulation of the highly efficient multisubstrate deoxyribonucleoside kinase from Drosophila melanogaster; J. Mol. Biol. 2000 301 827-837] was transformed by various expression plasmids using standard techniques. Transformed KY895 strains were grown to an OD600 nm of 0.5-0.6 in LB/Ampicillin (100 μg/ml) medium at 37° C., and protein expression was induced by addition of 100 μM IPTG. The cells were further grown for 4 hours at 25° C. and subsequently harvested by centrifugation.
Pellets were stored at −80° C. until activity testing. Pellets were submitted to brief sonification in extraction buffer (50 mM Tris/HCl pH 7.5, 1 mM DTT, 10% (v/v) glycerol, 1% (v/v) Triton X-100, protease inhibitor cocktail (Complete™ from Roche Diagnostics).
Deoxyribonucleoside kinase activities were determined in the KY895 extracts by initial velocity measurements based on four time samples by the DE-81 filter paper assay using tritium-labelled nucleoside substrates. 4 to 20 μg extracts were used in the assays. The assay was done as described by Munch-Petersen et al. [Munch-Petersen, B., Knecht, W, Lenz, C., Sondergaard, L. & Piskur, J: Functional expression of a multisubstrate deoxyribonucleoside kinase from Drosophila melanogaster and its C-terminal deletion mutants; J. Biol. Chem. 2000 275 6673-6679].
The protein concentration was determined according to Bradford with BSA as standard protein [Bradford M M: A rapid and sensitive method for the quantitation of microgram quantities of protein utilizing the principle of protein-dye binding; Anal. Biochem. 1976 72 248-254]. SDS-PAGE was done according to the procedure of Laemmli [Laemmli U K: Cleavage of structural proteins during the assembly of the head of bacteriophage T4; Nature 1970 227 680-685], and proteins were visualized by Coomassie staining to verify recombinant protein expression.
The four natural deoxyribonucleosides were tested at a fixed concentration of 100 μM. The highest specific activity in each extract was set to 100%.

| ability to phosphorylate the deoxyribonucleoside (in words) | SMILES |
| --- | --- |
| able to phosphorylate | Nc1ncnc2c1ncn2[C@H]1C[C@H](O)[C@@H](CO)O1 [dAdo, deoxyadenosine] |
| able to phosphorylate | Nc1ccn([C@H]2C[C@H](O)[C@@H](CO)O2)c(=O)n1 [dCyd, deoxycytidine] |
